The target of the test is T1, mAChR M1 (Homo sapiens, UniProt P11229).
T1 construct: expressed in transfected cells; host or cells: CHO-K1
T1 sequence (P11229 1-460): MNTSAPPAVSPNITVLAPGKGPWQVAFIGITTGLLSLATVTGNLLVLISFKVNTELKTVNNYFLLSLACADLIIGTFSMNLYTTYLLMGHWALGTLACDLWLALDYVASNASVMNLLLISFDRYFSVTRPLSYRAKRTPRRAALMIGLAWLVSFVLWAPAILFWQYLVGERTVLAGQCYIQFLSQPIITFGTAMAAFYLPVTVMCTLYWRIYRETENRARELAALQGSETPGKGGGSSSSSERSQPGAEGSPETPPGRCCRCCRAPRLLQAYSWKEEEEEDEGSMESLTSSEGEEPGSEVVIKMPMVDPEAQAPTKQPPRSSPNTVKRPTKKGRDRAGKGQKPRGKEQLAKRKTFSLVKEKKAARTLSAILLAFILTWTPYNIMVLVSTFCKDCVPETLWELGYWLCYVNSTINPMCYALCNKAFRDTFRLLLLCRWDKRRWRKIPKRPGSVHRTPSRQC
The test can be described thus: mAChR M1 cell-based functional assay (calcium mobilization, potentiation of EC20 acetylcholine response in CHO-K1 cells). From the text: Chinese hamster ovary (CHO-K1) cells stably expressing rat (r)M1 were purchased from the American Type Culture Collection and cultured according to their indicated protocol. CHO cells stably expressing human (h)M2, hM3, and hM5 were described previously (Levey, A. I., et al., J. Neurosci. 1991, 11, 3218-3226.); hM1 and hM4 cDNAs were purchased from Missouri S&T cDNA Resource; rM4 cDNA was provided by T. I. Bonner (National Institutes of Health, Bethesda, Md.). rM2 and rM3 were cloned from a rat brain cDNA library and sequence verified. hM1, rM2, rM3, hM4, and rM4 cDNAs were used to stably transfect CHO-K1 cells purchased from the American Type Culture Collection using Lipofectamine-2000. To make stable rM2, hM2, hM4, and rM4 cell lines for use in calcium mobilization assays, these cells also were stably transfected with a chimeric G-protein (Gqi5) (provided by B. R. Conklin, University of California, San Francisco) using Lipofectamine 2000. rM1, hM1, rM3, hM3, rM5, and hM5 cells were grown in Ham's F-12 medium containing 10% heat-inactivated fetal bovine serum (FBS), 20 mM HEPES, and 50 μg/mL G418 sulfate. rM2-Gqi5, hM2Gqi5, and hM4Gqi5 cells were grown in the same medium also containing 500 μg/mL Hygromycin B. Stable rM4Gqi5 cells were grown in DMEM containing 10% heat-inactivated FBS, 20 mM HEPES, 400 μg/mL G418 sulfate, and 500 μg/mL Hygromycin B.
For high throughput measurement of agonist-evoked increases in intracellular calcium, CHO-K1 cells stably expressing muscarinic receptors were plated in growth medium lacking G418 and hygromycin at 15,000 cells/20 μL/well in Greiner 384-well black-walled, tissue culture (TC)-treated, clear-bottom plates (VWR). Cells were incubated overnight at 37° C. and 5% CO2. The next day, cells were washed using an ELX 405 (BioTek) with four washes (80 μL) of assay buffer then […], 20 μL of Fluo-4/acetoxymethyl ester (Invitrogen, Carlsbad, Calif.) prepared as a 2.3 mM stock in DMSO and mixed in a 1:1 ratio with 10% (w/v) Pluronic F-127 and diluted in assay buffer was added to the wells and the cell plates were incubated for […] at 37° C. and 5% CO2. Dye was removed by washing with the ELX 405 (four 80 μL washes of assay buffer) then aspirated to 20 μL. Compound master plates were formatted in an 11 point CRC format (1:3 dilutions) in 100% DMSO with a starting concentration of 10 mM using the BRAVO liquid handler (Agilent). Test compound CRCs were then transferred to daughter plates ([…]) using the Echo acoustic plate reformatter (Labcyte, Sunnyvale, Calif.) and then diluted into assay buffer (40 μL) to a 2× stock using a Thermo Fisher Combi (Thermo Fisher Scientific, Waltham, Mass.).
Calcium flux was measured using the Functional Drug Screening System (FDSS) 6000 (Hamamatsu Corporation, Tokyo, Japan) as an increase in the fluorescent static ratio. Compounds were applied to cells (20 μL, 2×) using the automated system of the FDSS 6000 at 4 s into the 300 s protocol and the data were collected at 1 Hz. At 144 s into the 300 s protocol, 10 μL of an EC20 concentration of the muscarinic receptor agonist acetylcholine was added (5×), followed by the addition of 12 μL an EC80 concentration of acetylcholine at the 230 s time point (5×). Agonist activity was analyzed as a concentration-dependent increase in calcium mobilization upon compound addition. Positive allosteric modulator activity was analyzed as a concentration-dependent increase in the EC20 acetylcholine response. Antagonist activity was analyzed as a concentration-dependent decrease in the EC80 acetylcholine response. Concentration-response curves were generated using a four-parameter logistical equation in XLFit curve fitting software (IDBS, Bridgewater, N.J.) for Excel (Microsoft, Redmond, Wash.) or Prism (GraphPad Software, Inc., San Diego, Calif.).
The calcium mobilization assay was also used to determine “efficacy”. […]
In general terms: Calcium flux is commonly read through the fluorescence of an indicator in the cells.

For the compound `Cn1cc(-c2ccc(Cn3cc(S(=O)(=O)CCNC(=O)c4cocn4)c4c(F)cc(F)cc43)c(F)c2)cn1` [Compound B32], the Emax (CHO-K1, maximal response of curve fit or response at 30 μM test compound, as % of response to an about EC80 ACh concentration, read-out: Emax (% ACh maximum at 30 μM)) worked out at 57%. For the setting “positive allosteric modulation of EC20 acetylcholine response, >10,000 estimated where no plateau in the curve”, the EC50 is greater than 10 µM.

A word on the Emax: it is the maximal effect, on the per cent scale that the assay sets. In general, EC50 refers to the midpoint of the concentration-response curve.
